Assay results as given in US20260027116A1, “Methods of Treating Chronic Graft-Versus-Host Disease Following Allogeneic Hematopoietic Stem Cell Transplantation” (Kadmon Corporation, LLC, priority 2022, published 2026).

How the values were obtained:
[1] = biological target: CYP2D6 (Homo sapiens, UniProt P10635); experiment: metabolism in vitro; assay type: in vitro ADME
[2] = biological target: CYP3A4 (Homo sapiens, UniProt P08684); experiment: metabolism in vitro; assay type: in vitro ADME
[3] = tested on: cGVHD symptoms; experiment: Example 1: symptom activity by cGVHD Activity Assessment participant self-report; assay type: in vivo, human
Source text: Number of Participants With Maximal Improvement From Baseline in Symptom Activity by cGVHD Activity Assessment Participant Self-Report. cGVHD symptom severity was self-reported by participants. Participants were asked to rate their disease symptom severity over the last week on the following questions: skin itching at its worst, moth dryness at its worst, mouth pain at its worst, mouth sensitivity at its worst, main compliant on eyes, symptom severity on eyes. The severity rating was done on a 0 to 10-point numeric rating scare, where score 0 indicated ‘not at all severe cGVHD symptoms’ and score 10 indicated ‘most severe cGVHD symptoms possible’. EOT visit was performed within 3 days after the participant's last dose of study drug. Baseline value was defined as valid and last non-missing value obtained within 28 days prior to participant receiving first study medication. […] Analysis was performed on mITT population.

CYP3A4, sequence (P08684 whole entry): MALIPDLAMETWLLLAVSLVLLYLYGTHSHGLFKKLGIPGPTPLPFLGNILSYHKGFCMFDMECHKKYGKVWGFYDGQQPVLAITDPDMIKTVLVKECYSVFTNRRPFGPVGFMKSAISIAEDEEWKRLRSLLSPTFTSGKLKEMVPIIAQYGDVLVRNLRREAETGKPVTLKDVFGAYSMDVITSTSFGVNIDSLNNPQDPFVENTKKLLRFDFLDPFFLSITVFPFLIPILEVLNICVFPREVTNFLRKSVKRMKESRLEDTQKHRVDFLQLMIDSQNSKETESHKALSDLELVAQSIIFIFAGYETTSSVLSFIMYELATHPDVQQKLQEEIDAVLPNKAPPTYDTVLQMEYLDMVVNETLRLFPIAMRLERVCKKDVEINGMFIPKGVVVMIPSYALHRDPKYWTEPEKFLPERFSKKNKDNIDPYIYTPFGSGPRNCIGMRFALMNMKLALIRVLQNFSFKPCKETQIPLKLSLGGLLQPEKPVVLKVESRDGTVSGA
CYP2D6, sequence (P10635 whole entry): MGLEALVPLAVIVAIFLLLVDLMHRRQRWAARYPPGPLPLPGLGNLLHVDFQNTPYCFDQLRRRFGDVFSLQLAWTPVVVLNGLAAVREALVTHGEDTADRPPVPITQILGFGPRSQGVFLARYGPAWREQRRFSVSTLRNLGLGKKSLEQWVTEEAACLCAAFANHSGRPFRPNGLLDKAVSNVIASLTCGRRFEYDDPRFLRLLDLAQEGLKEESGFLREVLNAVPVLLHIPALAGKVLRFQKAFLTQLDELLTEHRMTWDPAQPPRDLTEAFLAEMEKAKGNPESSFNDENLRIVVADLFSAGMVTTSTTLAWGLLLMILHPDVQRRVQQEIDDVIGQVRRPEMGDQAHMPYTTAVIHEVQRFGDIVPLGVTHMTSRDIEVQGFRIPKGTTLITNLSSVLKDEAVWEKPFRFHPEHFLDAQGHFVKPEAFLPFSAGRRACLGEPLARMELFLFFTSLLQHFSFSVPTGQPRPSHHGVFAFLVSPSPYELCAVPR

CC(C)NC(=O)COc1cccc(-c2nc(Nc3ccc4[nH]ncc4c3)c3ccccc3n2)c1 [Belumosudil, 2-{3-[4-(1H-indazol-5-ylamino)-2-quinazolinyl]phenoxy}-N-(propan-2-yl) acetamide]
metabolism by CYP2D6 [1]: to a lesser extent | metabolism by CYP3A4 [2]: primarily metabolized | self-reported symptom activity maximal improvement 0, participants (%) ([3]; Cohort 1 200 mg QD): 1 (6%) participants | self-reported symptom activity maximal improvement 1, participants (%) ([3]; Cohort 1 200 mg QD): 0 (0%) participants | self-reported symptom activity maximal improvement 2, participants (%) ([3]; Cohort 1 200 mg QD): 0 (0%) participants | self-reported symptom activity maximal improvement 4, participants (%) ([3]; Cohort 1 200 mg QD): 1 (6%) participants | self-reported symptom activity maximal improvement from baseline −8, participants (%) ([3]; Cohort 1 200 mg QD): 0 (0%) participants | self-reported symptom activity maximal improvement −1, participants (%) ([3]; Cohort 1 200 mg QD): 2 (12%) participants | self-reported symptom activity maximal improvement −2, participants (%) ([3]; Cohort 1 200 mg QD): 2 (12%) participants | self-reported symptom activity maximal improvement −3, participants (%) ([3]; Cohort 1 200 mg QD): 2 (12%) participants | self-reported symptom activity maximal improvement −4, participants (%) ([3]; Cohort 1 200 mg QD): 2 (12%) participants | self-reported symptom activity maximal improvement −5, participants (%) ([3]; Cohort 1 200 mg QD): 2 (12%) participants | self-reported symptom activity maximal improvement −6, participants (%) ([3]; Cohort 1 200 mg QD): 0 (0%) participants | self-reported symptom activity maximal improvement −7, participants (%) ([3]; Cohort 1 200 mg QD): 3 (18%) participants | self-reported symptom activity maximal improvement 0, participants (%) ([3]; Cohort 2 200 mg BID): 1 (6%) participants | self-reported symptom activity maximal improvement 1, participants (%) ([3]; Cohort 2 200 mg BID): 0 (0%) participants | self-reported symptom activity maximal improvement 2, participants (%) ([3]; Cohort 2 200 mg BID): 1 (6%) participants | self-reported symptom activity maximal improvement 4, participants (%) ([3]; Cohort 2 200 mg BID): 0 (0%) participants | self-reported symptom activity maximal improvement from baseline −8, participants (%) ([3]; Cohort 2 200 mg BID): 0 (0%) participants | self-reported symptom activity maximal improvement −1, participants (%) ([3]; Cohort 2 200 mg BID): 2 (13%) participants | self-reported symptom activity maximal improvement −2, participants (%) ([3]; Cohort 2 200 mg BID): 3 (19%) participants | self-reported symptom activity maximal improvement −3, participants (%) ([3]; Cohort 2 200 mg BID): 2 (13%) participants | self-reported symptom activity maximal improvement −4, participants (%) ([3]; Cohort 2 200 mg BID): 2 (13%) participants | self-reported symptom activity maximal improvement −5, participants (%) ([3]; Cohort 2 200 mg BID): 0 (0%) participants | self-reported symptom activity maximal improvement −6, participants (%) ([3]; Cohort 2 200 mg BID): 1 (6%) participants | self-reported symptom activity maximal improvement −7, participants (%) ([3]; Cohort 2 200 mg BID): 2 (13%) participants | self-reported symptom activity maximal improvement 0, participants (%) ([3]; Cohort 3 400 mg QD): 0 (0%) participants | self-reported symptom activity maximal improvement 1, participants (%) ([3]; Cohort 3 400 mg QD): 1 (5%) participants | self-reported symptom activity maximal improvement 2, participants (%) ([3]; Cohort 3 400 mg QD): 2 (10%) participants | self-reported symptom activity maximal improvement 4, participants (%) ([3]; Cohort 3 400 mg QD): 0 (0%) participants | self-reported symptom activity maximal improvement from baseline −8, participants (%) ([3]; Cohort 3 400 mg QD): 1 (5%) participants | self-reported symptom activity maximal improvement −1, participants (%) ([3]; Cohort 3 400 mg QD): 2 (10%) participants | self-reported symptom activity maximal improvement −2, participants (%) ([3]; Cohort 3 400 mg QD): 2 (10%) participants | self-reported symptom activity maximal improvement −3, participants (%) ([3]; Cohort 3 400 mg QD): 2 (10%) participants | self-reported symptom activity maximal improvement −4, participants (%) ([3]; Cohort 3 400 mg QD): 1 (5%) participants | self-reported symptom activity maximal improvement −5, participants (%) ([3]; Cohort 3 400 mg QD): 2 (10%) participants | self-reported symptom activity maximal improvement −6, participants (%) ([3]; Cohort 3 400 mg QD): 4 (19%) participants | self-reported symptom activity maximal improvement −7, participants (%) ([3]; Cohort 3 400 mg QD): 0 (0%) participants
